What was measured:
Assay in all cases: relative viability (nuclei count vs DMSO), 5 days (fraction); higher = more cells survive
[1] = compound: C1/C(=C\C2=CC=CS2)/C(=O)/C(=C/C3=CC=CS3)/C1 + C[C@@H](Oc1cc(-c2cnn(C3CCNCC3)c2)cnc1N)c1c(Cl)ccc(F)c1Cl [Crizotinib] (partner 1 µM)
Summary of the method: (§1)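 Lung cancer cell lines in 1536-well plates got either a single drug or a fixed anchor-drug dose together with five library-drug doses (not always all listed) in √10 steps, by pin tool, on the day after seeding. Nuclei were counted after 5 days, and relative viability is the treated-to-vehicle ratio of nuclei counts. Values are medians of duplicate plates.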

[2] = compound: C1/C(=C\C2=CC=CS2)/C(=O)/C(=C/C3=CC=CS3)/C1 + O=C(CCCCCCC(=O)Nc1ccccc1)NO [Vorinostat] (partner 1 µM)
Summary of the method: as §1

[3] = compound: C[C@]12O[C@H](C[C@]1(O)CO)n1c3ccccc3c3c4c(c5c6ccccc6n2c5c31)CNC4=O [Lestaurtinib] + CC1(C)CCC(c2ccc(Cl)cc2)=C(CN2CCN(c3ccc(C(=O)NS(=O)(=O)c4ccc(N[C@H](CCN5CCOCC5)CSc5ccccc5)c(S(=O)(=O)C(F)(F)F)c4)cc3)CC2)C1 [Navitoclax] (partner 0.5 µM)
Summary of the method: as §1

Lestaurtinib + Olaparib = compound: C[C@]12O[C@H](C[C@]1(O)CO)n1c3ccccc3c3c4c(c5c6ccccc6n2c5c31)CNC4=O [Lestaurtinib] + O=C(c1cc(Cc2n[nH]c(=O)c3ccccc23)ccc1F)N1CCN(C(=O)C2CC2)CC1 [Olaparib] (partner 8 µM)
Summary of the method: as §1

Row | Cell Line | relative viability ([1]; first compound 0.2 µM) | relative viability ([1]; first compound 0.6325 µM) | relative viability ([1]; first compound 2 µM) | relative viability ([1]; first compound 6.325 µM) | relative viability ([1]; first compound 20 µM) | relative viability ([2]; first compound 0.2 µM) | relative viability ([2]; first compound 0.6325 µM) | relative viability ([2]; first compound 2 µM) | relative viability ([2]; first compound 6.325 µM) | relative viability ([2]; first compound 20 µM) | relative viability ([3]; first compound 0.005 µM) | relative viability ([3]; first compound 0.01581 µM) | relative viability ([3]; first compound 0.05 µM) | relative viability ([3]; first compound 0.1581 µM) | relative viability ([3]; first compound 0.5 µM) | relative viability (Lestaurtinib + Olaparib; first compound 0.005 µM) | relative viability (Lestaurtinib + Olaparib; first compound 0.01581 µM) | relative viability (Lestaurtinib + Olaparib; first compound 0.05 µM) | relative viability (Lestaurtinib + Olaparib; first compound 0.1581 µM) | relative viability (Lestaurtinib + Olaparib; first compound 0.5 µM)
1 | LXF-289 | 0.811 | 0.835 | 0.767 | 0.709 | 0.821 | 0.821 | 0.829 | 0.772 | 0.732 | 0.724 | 0.93 | 0.986 | 0.742 | 0.707 | 0.161 | 1.09 | 1.08 | 0.753 | 0.852 | 0.172
2 | PC-3 [JPC-3] | 0.978 | 0.997 | 0.944 | 0.859 | 1 |  | 0.985 | 0.954 | 0.74 | 1.03 | 0.84 | 0.788 | 0.763 | 0.65 | 0.55 | 1.2 | 1.3 | 0.818 | 1.03 | 0.698
3 | CAL-12T | 0.839 | 0.912 | 0.673 | 0.362 | 0.596 | 0.724 | 0.91 | 0.648 | 0.77 | 0.788 | 1.25 | 1.45 | 1.08 | 1.2 | 0.686 | 0.837 | 0.767 | 0.877 | 0.802 | 0.344
4 | COR-L 105 | 0.861 | 1.03 | 0.885 | 0.695 | 0.646 | 0.653 | 0.969 | 0.852 | 0.391 | 0.669 | 0.803 | 0.746 | 0.595 | 0.643 | 0.322 | 0.64 | 0.685 | 0.792 | 0.579 | 0.498
5 | NCI-H2347 | 0.717 | 0.771 | 0.7 | 0.689 | 0.606 | 0.627 | 0.561 | 0.601 | 0.61 | 0.667 | 0.835 | 0.87 | 0.575 | 0.526 | 0.42 | 0.567 | 0.639 | 0.581 | 0.529 | 0.607
6 | NCI-H2126 | 1 | 1.1 | 0.989 | 0.887 | 0.986 | 0.742 | 0.774 | 0.809 | 0.717 | 0.781 | 0.924 | 0.914 | 0.854 | 0.632 | 0.75 | 1.03 | 0.971 | 0.812 | 0.852 | 0.842
7 | NCI-H838 | 0.896 | 0.889 | 0.807 | 0.784 | 0.858 | 0.731 | 0.709 | 0.767 | 0.596 | 0.657 | 1.21 | 1.05 | 1 | 0.532 | 0.164 | 0.911 | 0.796 | 0.549 | 0.348 | 0.162
8 | A549 | 0.825 | 0.813 | 0.823 | 0.767 | 0.738 |  |  |  |  |  | 1.28 | 1.27 | 0.948 | 0.615 | 0.0764 | 0.299 | 0.238 | 0.271 | 0.282 | 0.158
9 | NCI-H2342 |  |  |  |  |  | 0.667 | 0.997 | 0.85 | 0.757 | 0.683 |  |  |  |  |  | 0.44 | 0.432 | 0.439 | 0.43 | 0.501

— the supplement of paper PMC10307832
